From patent US10827755B2, “Insecticidal compositions and methods” (priority 2015, dated 2020)

What was measured:
Format in all cases: in vivo
Soybean Looper (SL) = assay: Insect feeding assay (Example 4), soybean looper; set-up: key: “+” represents mortality or stunting significantly different compared to the untreated control; “−” represents no significant difference in mortality or stunting compared to the untreated control; settings: 0.05 mg/mL diet overlay, 6 days, 27° C.
Method: (§1) For evaluating control of insect species in this example, the test unit consisted of a 96-well bioassay plate filled with species-specific artificial diet. Compounds were dissolved in DMSO and added as diet overlay to the indicated concentration and dried/maintained overnight before infestation. Once dry, the bioassay plates were infested with a single neonate larva (nymph for lygus) per well. The bioassay plates were held for 6 days in an incubator at 27° C. and 50% relative humidity. Each well was assessed for infestation and contamination. Wells that were contaminated or not infested were not included in the stunting and mortality assessment. A stunting score was reported based on the relative size of the survivors within the 8-well column with averaging across a 3 column replicate. Untreated control insects were used as a reference.

[1] = tested on: Yellow Fever Mosquito (YFM); assay: Insect feeding assay (Example 3), yellow fever mosquito; set-up: key: A “+” score was given to samples which showed any level of stunting and/or mortality higher than that of the untreated controls; A “−” score was given to samples which showed no activity; settings: 0.1 mginiL diet overlay, 6 days, 27° C., summary of two replicates
Method: (§2) For evaluating control of insect species, the test unit consisted of a 96-well bioassay plate filled with a species-specific artificial diet. Compounds were dissolved in DMSO and added as diet overlay to the indicated concentration, and dried/maintained overnight before infestation. Once dry, the bioassay plates were infested with a single neonate larva (nymph for lygus) per well. The bioassay plates were then held for 6 days in an incubator at 27° C. and 50% relative humidity. Sample response was then visually assessed based on mortality and stunting of the insect. […] Western corn rootworm data represents a summary of three replicates. Data for all other insect species represents a summary of two replicates.

Fall Armyworm (FAW) = assay: Insect feeding assay (Example 4), fall armyworm; set-up: key: “+” represents mortality or stunting significantly different compared to the untreated control; “−” represents no significant difference in mortality or stunting compared to the untreated control; settings: 0.05 mg/mL diet overlay, 6 days, 27° C.
Method: as §1

Diamondback Moth (DBM) [2] = assay: Insect feeding assay (Example 4), diamondback moth; set-up: key: “+” represents mortality or stunting significantly different compared to the untreated control; “−” represents no significant difference in mortality or stunting compared to the untreated control; settings: 0.05 mg/mL diet overlay, 6 days, 27° C.
Method: as §1

[3] = tested on: Western Corn Root Worm (WCR); assay: Insect feeding assay (Example 3), Western corn rootworm; set-up: key: A “+” score was given to samples which showed any level of stunting and/or mortality higher than that of the untreated controls; A “−” score was given to samples which showed no activity; settings: 0.1 mg/mL diet overlay, 6 days, 27° C., summary of three replicates
Method: as §2

[4] = tested on: Western Tarnished Plantbug; assay: Insect feeding assay (Example 4), Western tarnished plantbug; set-up: key: “+” represents mortality or stunting significantly different compared to the untreated control; “−” represents no significant difference in mortality or stunting compared to the untreated control; settings: 0.05 mg/mL diet overlay, nymph, 6 days, 27° C.
Method: as §1

[5] = tested on: Yellow Fever Mosquito (YEW); assay: Insect feeding assay (Example 4), yellow fever mosquito; set-up: key: “+” represents mortality or stunting significantly different compared to the untreated control; “−” represents no significant difference in mortality or stunting compared to the untreated control; settings: 0.05 mg/mL diet overlay, 6 days, 27° C.
Method: as §1

[6] = tested on: Western Corn Rootworm (WCR); assay: Insect feeding assay (Example 4), Western corn rootworm; set-up: key: “+” represents mortality or stunting significantly different compared to the untreated control; “−” represents no significant difference in mortality or stunting compared to the untreated control; settings: 0.05 mg/mL diet overlay, 6 days, 27° C.
Method: as §1

Diamondback Moth (DBM) [7] = assay: Insect feeding assay (Example 3), diamondback moth; set-up: key: A “+” score was given to samples which showed any level of stunting and/or mortality higher than that of the untreated controls; A “−” score was given to samples which showed no activity; settings: 0.1 mg/mL diet overlay, 6 days, 27° C., summary of two replicates
Method: as §2

| SMILES | SL (0.05 mg/mL) mortality or stunting (Soybean Looper (SL)) | YEM (0.1 mginiL) mortality and stunting score [1] | FAW (0.05 mg/mL) mortality or stunting (Fall Armyworm (FAW)) | DBM (0.05 mg/mL) mortality or stunting (Diamondback Moth (DBM) [2]) | WCR (0.1 mg/mL) mortality and stunting score [3] | WTP (0.05 mg/mL mortality or stunting) [4] | YFM (0.05 mg/mL) mortality or stunting [5] | WCR (0.05 mg/mL) mortality or stunting [6] | DBM (0.1 mg/mL) mortality and stunting score (Diamondback Moth (DBM) [7]) |
| --- | --- | --- | --- | --- | --- | --- | --- | --- | --- |
| Cc1cc(C)c(-c2nc(-c3ccccc3)c(-c3ccccc3)[nH]2)c(C)c1 [I-i] | − | + | − | + | + | − | − |  |  |
| Cc1ccc(C)c(-c2nc(-c3c(Cl)cccc3Cl)[nH]c2-c2ccccc2)c1 [I-ii] | + | + | + | + | + | + | + |  |  |
| Cc1ccc(C)c(-c2nc(-c3c(F)cccc3Cl)[nH]c2-c2ccccc2)c1 [I-iii] |  | + |  |  |  |  |  |  |  |
| COc1ccc(-c2nc(-c3ccccc3)c(-c3ccccc3)[nH]2)c(OC)c1 [I-iv] | − | + | − | + | + | − | + |  |  |
| CSc1ccc(-c2nc(-c3ccc(C)cc3)c(-c3ccc(C)cc3)[nH]2)cc1 [I-ix] | + |  | + | + |  | − | − | + |  |
| CCOc1ccccc1-c1nc(-c2ccccc2)c(-c2ccccc2)[nH]1 [I-v] | − |  | − | − | + | − | − |  |  |
| C#CCOc1ccccc1-c1nc(-c2ccccc2)c(-c2ccccc2)[nH]1 [I-vi] | − |  | − | + |  | + | + |  |  |
| Clc1cccc(-c2[nH]c(-c3ccc(Cl)cc3Cl)nc2-c2ccccc2)c1 [I-vii] | + |  | + | + |  | − | + |  |  |
| COc1ccc(-c2nc(-c3ccccc3)c(-c3ccccc3)[nH]2)c(OC)c1OC [I-viii] | − |  | − | + |  | − | + | + |  |
| O=C(c1ccc(F)cc1)c1ccc(-c2nc(-c3cccc(F)c3)[nH]c2-c2ccccc2)cc1 [I-x] | + |  | + | + |  | + | − | + |  |
| C=CCNC(=O)c1cn(-c2ccc(C)cc2)nc1-c1ccccc1 [II-i] |  | + |  | + |  |  |  |  | + |
| CC1CCCCC1NC(=O)c1cn(-c2ccccc2)nc1-c1cccs1 (stereo not drawn) [II-ii] | − |  | − | − |  | − | − |  | + |
| CCOCCNC(=O)c1cn(C)nc1-c1ccccc1Cl [II-iii] | − | + | − | − |  | − | − |  |  |
| Cn1cc(C(=O)NCCC2CCCO2)c(-c2ccccc2Cl)n1 (stereo not drawn) [II-iv] | − | + | − | − |  | − | − |  |  |
| Cn1cc(C(=O)NC2CCSCC2)c(-c2ccccc2Cl)n1 [II-v] |  | + |  |  |  |  |  |  |  |
